*1 amine or outer side, *2 acyl side, *3 side chain or, on linkers, in order; H or OH if unused. Where a SMILES comes first, the peptide text is derived from it. [ ]: non-standard residue; d: D form. X1 = CCCCCCCCCCCCCCN(CC(=O)[*:2])[*:1]; Nrpe = C[C@@H](NCC(=O)O)c1ccccc1; Nlys = NCCCCNCC(=O)O
Tested on: transgenic Zaire Ebola virus (EBOV) of the Mayinga strain, expressing green fluorescent protein (EBOV-GFP)
Type: cell-based

Structure (SMILES): CCCCCCCCCCCCCCNCC(=O)N(CCCCN)CC(=O)N(CC(=O)N(CC(=O)N(CCCCN)CC(N)=O)[C@H](C)c1ccccc1)[C@H](C)c1ccccc1 [MXB-24,816, H-Ntetradec-Nlys-Nspe-Nspe-Nlys-NH2] (H-[X1][Nlys][Nrpe][Nrpe][Nlys]-NH2)
- antiviral activity against Ebola virus (inhibition of viral titers and GFP-positive Ebola virus replication): showed antiviral activity

Reference: patent US20250268975A1 (priority 2024, published 2025)
